ChEMBL document CHEMBL1201862, “PubChem BioAssay data set” (2004)
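Each compound was tested at five concentrations against cells in 96-well plates for 48 hours. Here, GI50 denotes the concentration required for 50% inhibition of growth.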 Calls of active or inactive are those of the source. No stated cut-off is given here; in the data, active = GI50 up to about 1.1 µM and inactive = higher.

What was measured:
Assay in all cases: DTP human tumour cell line panel, 48 h
[1] = tested on: 786-0
[2] = tested on: ACHN
[3] = tested on: DU-145
[4] = tested on: HCC 2998
[5] = tested on: HCT-15
[6] = tested on: HL-60
[7] = tested on: HOP-62
[8] = tested on: Hs-578T
[9] = tested on: MCF7
[10] = tested on: MDA-MB-435
[11] = tested on: MOLT-4
[12] = tested on: NCI-H226
[13] = tested on: OVCAR-3
[14] = tested on: OVCAR-8
[15] = tested on: PC-3
[16] = tested on: RPMI-8226
[17] = tested on: SK-MEL-28
[18] = tested on: SK-MEL-2
[19] = tested on: SN12C
[20] = tested on: SW-620

CCC1C(c2cc(OC)c(OC)c(OC)c2)c2cc3c(cc2OC1N1CCCC1)OCO3 (stereo not given)
GI50 [1]: 3070 nM (inactive)
GI50 [2]: 4030 nM (inactive)
GI50 [3]: 2370 nM (inactive)
GI50 [4]: 2740 nM (inactive)
GI50 [5]: 984 nM
GI50 [6]: 1570 nM (inactive)
GI50 [7]: 2820 nM (inactive)
GI50 [8]: 1360 nM (inactive)
GI50 [9]: 542 nM (active)
GI50 [10]: 277 nM (active)
GI50 [11]: 1950 nM (inactive)
GI50 [12]: 3080 nM (inactive)
GI50 [13]: 1450 nM (inactive)
GI50 [14]: 4070 nM (inactive)
GI50 [15]: 1480 nM (inactive)
GI50 [16]: 3050 nM (inactive)
GI50 [17]: 8870 nM (inactive)
GI50 [18]: 1980 nM (inactive)
GI50 [19]: 4360 nM (inactive)
GI50 [20]: 1210 nM (inactive)

C#CCN1CCN(C(=S)N/N=C(\C)c2ccccn2)CC1
GI50 [1]: 72.1 nM (active)
GI50 [2]: 44 nM (active)
GI50 [3]: 1480 nM (inactive)
GI50 [4]: 568 nM (active)
GI50 [5]: 10 nM
GI50 [6]: 10 nM (active)
GI50 [7]: 363 nM (active)
GI50 [8]: 1740 nM (inactive)
GI50 [9]: 10 nM (active)
GI50 [10]: 1490 nM (inactive)
GI50 [11]: 10 nM (active)
GI50 [12]: 1190 nM (inactive)
GI50 [13]: < 57 nM (active)
GI50 [14]: 10 nM (active)
GI50 [15]: 9.75 nM (active)
GI50 [16]: 10 nM (active)
GI50 [17]: 1360 nM (inactive)
GI50 [18]: 262 nM (active)
GI50 [19]: 232 nM (active)
GI50 [20]: 26.2 nM (active)

Nc1nc(N)c2cc(-c3ccccc3)cnc2n1
GI50 [1]: 9890 nM (inactive)
GI50 [2]: 12900 nM (inactive)
GI50 [3]: > 10000 nM (inactive)
GI50 [4]: 33000 nM (inactive)
GI50 [5]: 27400 nM
GI50 [6]: 13300 nM (inactive)
GI50 [7]: 17000 nM (inactive)
GI50 [8]: 20200 nM (inactive)
GI50 [9]: 16300 nM (inactive)
GI50 [10]: > 10000 nM (inactive)
GI50 [11]: 9890 nM (inactive)
GI50 [12]: 16500 nM (inactive)
GI50 [13]: 18200 nM (inactive)
GI50 [14]: 15400 nM (inactive)
GI50 [15]: 8000 nM (inactive)
GI50 [16]: 16600 nM (inactive)
GI50 [17]: 17700 nM (inactive)
GI50 [18]: 33000 nM (inactive)
GI50 [19]: 12200 nM (inactive)
GI50 [20]: 9840 nM (inactive)
